In series [1] the test system is thrombin receptor (LM and RA assays). Kind of series: Activity of cyclic TRPs in the bioassays previously described (assay not specified). Type of series: cell-based. The conditions noted are these: concentration tested 9 to 200 μM, differs per compound. The procedure:
(§1) The guinea pig gastric longitudinal muscle (GLM) strips and the rat thoracic aorta (RA) ring preparations were isolated as previously described 14, 15. In brief, gastric LM strips (3×10 mm), obtained from male albino Hartley strain guinea pigs were equilibrated for about 1.5 h at 37° (in an aerated (95% O2 /5% CO2) Krebs-Henseleit buffer (3 mL) of the following composition (in mM): NaCl, 118; KCl, 4.7; CaCl2, 2.5; MgCl2, 1.2; NaHCO3, 25; KH2 PO4, 1.2; and glucose, 10. The pH was maintained at 7.4. Rat gastric LM strips (3×10 mm) were obtained, as for the GLM strips, from male albino Sprague Dawley animals (250-300 g). The stomach, opened along the greater curvature, was stripped free of all mucosal tissue under microscopic visualization and longitudinal tissue strips were cut exactly at right angles to the visible circular muscle bundles. Tissue strips were pre-equilibrated in the buffer described above. Each tissue was challenged twice each in succession at timed intervals with 50 nM carbachol (20 min intervals), 1 μM angiotensin-II (1 h intervals) and 95 μM (60 μg/mL) receptor pentapeptide (P5, SFLLR, SEQ ID NO: 2) (25 min intervals for GLM; 30-35 min for RLM); tissues were washed at 10 and 15 min after the additions of agonists. Contractions were monitored isometrically using Statham force-displacement transducers. […]
Thoracic RA rings (2 mm×3 mm), obtained from male albino Sprague Dawley rats, were equilibrated (about 1 h, 37° ) in the same organ bath buffer as was used for the LM tissue, and tension (baseline 1.0 g) was monitored isometrically using either Statham or Grass force-displacement transducers. […] Therefore, to construct concentration-effect curves and to normalize data between individual preparations, the relaxation responses to P5 and to the other TRPs were expressed as a percentage of the relaxation caused by 215 μM (137 μg/mL) of P5 (% P5215). For purposes of comparison, the same stock solutions of an individual peptide were evaluated, relative to P5, in both the RA and LM bioassays. […]
Cyclic TRPs were evaluated using the bioassays previously described.

The target of series [2] is T1, thrombin receptor (guinea pig gastric longitudinal muscle strips) (Cavia porcellus, UniProt A0A286XH07).
T1 sequence (A0A286XH07 24-426): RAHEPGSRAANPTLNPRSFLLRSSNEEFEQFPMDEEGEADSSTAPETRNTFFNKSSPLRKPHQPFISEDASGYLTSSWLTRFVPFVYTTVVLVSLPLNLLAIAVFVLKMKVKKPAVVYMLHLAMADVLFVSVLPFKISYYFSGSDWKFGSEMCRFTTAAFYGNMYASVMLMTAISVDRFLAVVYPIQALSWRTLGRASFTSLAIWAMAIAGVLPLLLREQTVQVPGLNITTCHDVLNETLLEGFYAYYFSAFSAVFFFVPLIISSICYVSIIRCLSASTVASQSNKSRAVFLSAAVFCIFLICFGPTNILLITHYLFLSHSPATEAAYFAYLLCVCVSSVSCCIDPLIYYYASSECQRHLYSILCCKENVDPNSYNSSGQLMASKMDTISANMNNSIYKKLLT
The conditions noted are these: for Relative potency (REC) GLM: average concentration ratio relative to P5 causing equal contractile response (REC = EC TRP ÷ EC P5). The procedure: (§2) The guinea pig gastric longitudinal muscle (GLM) strips and the rat thoracic aorta (RA) ring preparations were isolated as previously described 14, 15. In brief, gastric LM strips (3×10 mm), obtained from male albino Hartley strain guinea pigs were equilibrated for about 1.5 h at 37° (in an aerated (95% O2 /5% CO2) Krebs-Henseleit buffer (3 mL) of the following composition (in mM): NaCl, 118; KCl, 4.7; CaCl2, 2.5; MgCl2, 1.2; NaHCO3, 25; KH2 PO4, 1.2; and glucose, 10. The pH was maintained at 7.4. Rat gastric LM strips (3×10 mm) were obtained, as for the GLM strips, from male albino Sprague Dawley animals (250-300 g). The stomach, opened along the greater curvature, was stripped free of all mucosal tissue under microscopic visualization and longitudinal tissue strips were cut exactly at right angles to the visible circular muscle bundles. Tissue strips were pre-equilibrated in the buffer described above. Each tissue was challenged twice each in succession at timed intervals with 50 nM carbachol (20 min intervals), 1 μM angiotensin-II (1 h intervals) and 95 μM (60 μg/mL) receptor pentapeptide (P5, SFLLR, SEQ ID NO: 2) (25 min intervals for GLM; 30-35 min for RLM); tissues were washed at 10 and 15 min after the additions of agonists. Contractions were monitored isometrically using Statham force-displacement transducers. Only tissues responding well to all three agonists were used further for the evaluation of the biological activities of P5 and other peptide agonists.

For series [3], the target named is T2, thrombin receptor (rat gastric longitudinal muscle strips) (Rattus norvegicus, UniProt P26824).
T2 construct: Rat gastric LM strips (3×10 mm) were obtained; from tissue; host or cells: rat (Sprague Dawley) gastric longitudinal muscle strips
T2 sequence (P26824 22-432): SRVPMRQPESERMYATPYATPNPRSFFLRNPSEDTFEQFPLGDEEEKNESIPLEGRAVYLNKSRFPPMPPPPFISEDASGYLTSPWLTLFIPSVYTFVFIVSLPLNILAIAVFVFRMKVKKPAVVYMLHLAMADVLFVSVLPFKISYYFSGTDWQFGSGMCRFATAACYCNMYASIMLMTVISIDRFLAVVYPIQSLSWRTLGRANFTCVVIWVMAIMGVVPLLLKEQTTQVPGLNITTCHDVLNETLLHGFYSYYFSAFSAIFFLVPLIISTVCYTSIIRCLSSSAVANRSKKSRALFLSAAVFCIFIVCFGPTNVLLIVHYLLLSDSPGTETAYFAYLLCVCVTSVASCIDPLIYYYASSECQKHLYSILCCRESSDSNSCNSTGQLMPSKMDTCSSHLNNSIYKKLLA
Nature of the series: Rat gastric longitudinal muscle (RLM) strip contractile assay. Type of series: cell-based.
Description: We obtained an evaluation of the potencies of the various TRPs, relative to P5, by using the linear portions of the concentration-effect curves, so as to calculate for several response levels the average ratio of concentrations (REC) of an individual TRP, relative to concentration of P5 that caused the same contractile response (i.e. REC =ECTRP .div.ECPS). […] In the RA assay, a similar approach to the estimate of relative potencies (REC S) was used, even though all agonists, except for P5--OCH3, appeared to cause equivalent maximal relaxation (FIG. 2, lower).
as §2, with “peptide agonists. For the GLM and RLM assays, concentration-effect curves for all peptides were constructed by expressing the response of each agonist as a percentage (% P595) relative to the contraction caused by 95 μM (60 μg/mL) P5 (0.9±0.1 g tension: mean ±S.E.M. for n=12 in the GLM; 1.6±0.9 g tension: mean ±S.E.M. for n=36 in the RLM).” for “peptide agonists.”
Weighed peptide samples were routinely dissolved in 50 mM phosphate buffer, pH 7.4, to yield stock solutions, from which volumes of up to 0.2 mL were added directly to the organ bath; the concentrations of all stock solutions used were verified by quantitative amino acid analysis of aliquots. Pr-P4 and Pr-P4--NH2 were dissolved in 40 mM phosphate buffer, pH 7.4, containing 20% v/v absolute ethanol (i.e. 8 Vol of the above 50 mM phosphate buffer +2 Vol. ethanol). Control aliquots of the ethanol-containing phosphate buffer alone had no effect on either of the bioassay systems. Acetylcholine, carbachol, indomethacin, noradrenaline and angiotensin-II and thrombin (human, 3000 to 4000 U/mg; 1 U/mL.perspectiveto.10 nM) were from Sigma (St. Louis, Mo.); genistein (GS) was from ICN Biochemicals, Costa Mesa, Calif. Tyrphostin (TP) (RG 50864, also designated AG213) was obtained through the courtesy of Dr. R. R. Swillo, Rhone-Poulenc Rorer (Collegeville, Pa). […] Indomethacin was dissolved in ethanol, such that the final ethanol concentration in the organ bath was at or lower than 0.01% v/v; this concentration of ethanol alone had no effect on the bioassay systems.

The test system of series [4] is thrombin receptor (rat thoracic aorta rings, intact endothelium). Particulars: for Relative potency (REC) RA: average concentration ratio relative to P5 causing equal relaxation response (REC = EC TRP ÷ EC P5).
Description: Thoracic RA rings (2 mm×3 mm), obtained from male albino Sprague Dawley rats, were equilibrated (about 1 h, 37° ) in the same organ bath buffer as was used for the LM tissue, and tension (baseline 1.0 g) was monitored isometrically using either Statham or Grass force-displacement transducers. The presence of an intact endothelium was ascertained by monitoring a relaxation response to acetylcholine (ACh, 1 μM) in a preparation that was submaximally (EC75) contracted by 0.1 μM noradrenaline (NA) in the presence of 0.1 mM ascorbic acid (to preserve the catecholamine). Only tissues yielding a relaxation concentration-response curve between 0.01 and 10 μM acetylcholine (maximal relaxation of 70 to 90%, relative to the tension developed by 0.1 μM NA) were used for the further evaluation of the receptor-derived peptides. The assay of TRP responsiveness was done (e.g. see FIG. 1) on tissues that were precontacted with 0.1 μM NA at 30 min time intervals. Tissues were washed approx. 5 min after the application of TRPs. […] For purposes of comparison, the same stock solutions of an individual peptide were evaluated, relative to P5, in both the RA and LM bioassays. When possible, both assays were done simultaneously on the same day.
Weighed peptide samples were routinely dissolved in 50 mM phosphate buffer, pH 7.4, to yield stock solutions, from which volumes of up to 0.2 mL were added directly to the organ bath; the concentrations of all stock solutions used were verified by quantitative amino acid analysis of aliquots. Pr-P4 and Pr-P4--NH2 were dissolved in 40 mM phosphate buffer, pH 7.4, containing 20% v/v absolute ethanol (i.e. 8 Vol of the above 50 mM phosphate buffer +2 Vol. ethanol). […] Indomethacin was dissolved in ethanol, such that the final ethanol concentration in the organ bath was at or lower than 0.01% v/v; this concentration of ethanol alone had no effect on the bioassay systems.
Series [5] is described as follows: HPLC analysis of peptide recovered from RLM and RA organ bath solution. Type of series: in vitro ADME, rat. The conditions noted are these: just after peak of tissue response (5-10 min). The procedure:
As illustrated in FIG. 4 (lanes C and D), the organ bath solution withdrawn from either a RLM or RA assay (30-60 μg/mL P5 or 47.5 to 95 μM), just after the peak of tissue response, was subjected to analysis by HPLC and compared with a standard solution of P5 made immediately before HPLC analysis either in buffer alone or in buffer that had been exposed to tissue under the conditions of a bioassay. […] In FIG. 4, the peptide degradation products would have been eluted at retention times earlier than those of either P5 (17.33 min) or P5--NH2 (16.83 min).

Series [6] deals with thrombin receptor (gastric longitudinal muscle strips). Nature of the series: Gastric longitudinal muscle (LM) assay, either or both GLM and RLM. Type of series: cell-based. How it is done: LM: Either or both GLM and RLM
as §1, with “Each tissue was challenged twice each in succession at timed intervals with 50 nM carbachol (20 min intervals), 1 μM angiotensin-II (1 h intervals) and 95 μM (60 μg/mL) receptor pentapeptide (P5, SFLLR, SEQ ID NO: 2) (25 min intervals for GLM; 30-35 min for RLM); tissues were washed at 10 and 15 min after the additions of agonists.” left out
Weighed peptide samples were routinely dissolved in 50 mM phosphate buffer, pH 7.4, to yield stock solutions, from which volumes of up to 0.2 mL were added directly to the organ bath; the concentrations of all stock solutions used were verified by quantitative amino acid analysis of aliquots. […]

A further series has as its system platelets. Particulars: reported previously; cited from earlier work.

Residues, ends and D or L forms follow the SMILES beside them.

For the compound `CC(C)C[C@@H]1NC(=O)[C@H](Cc2ccccc2)NC(=O)CNC(=O)[C@H](CCCNC(=N)N)NC(=O)[C@H](CC(C)C)NC1=O` (cyclo(FLLRG)), in series [1], the “Activity relative to SFLLR (SEQ ID NO:2) (P-5) (ECcyclic /ECP-5)” value was 4.

With `CC(C)C[C@H](NC(=O)[C@H](CC(C)C)NC(=O)[C@H](Cc1ccccc1)NC(=O)[C@@H](N)CO)C(=O)N[C@@H](CCCNC(=N)N)C(=O)O` [P5, S42 FLLR46, reference compound], the “Relative potency (REC) GLM” value in series [2] amounted to 1. Besides, in series [3], the “Relative potency (REC) RLM” value came out at 1. The “Relative potency (REC) RA” value in series [4] is reported as 1. For the same compound, the “Recovery of intact peptide from organ bath (HPLC)” value in series [5] (RA organ bath) is on record as “Quantitative recovery”; in series [5] (RLM organ bath) it was “essentially quantitative recovery”.

With `CC(C)C[C@H](NC(=O)[C@H](CC(C)C)NC(=O)[C@H](Cc1ccccc1)NC(=O)[C@@H](N)CO)C(=O)N[C@@H](CCCNC(=N)N)C(N)=O` [P5-NH-2, S42 FLLR46 -amide], the Desensitization entry in series [6] was “did not”. The “Desensitization on repeated administration” value in series [2] (GLM) is reported as “not”. Besides, in series [2], the “Relative potency (REC) GLM” value came out at 0.1. In addition, the “Relative potency (REC) RLM” value in series [3] was determined as 0.2. The “Agonist (relaxation) activity” value in series [4] (RA, precontracted with 0.1 μM noradrenaline) was “transient relaxation”. In addition, the “Relative potency (REC) RA” value in series [4] was 0.1. Further, the “Recovery of intact peptide from organ bath (HPLC)” value in series [5] (RA organ bath) and in series [5] (RLM organ bath) was “recovered essentially intact” in each case.

Consider `CC(C)C[C@@H]1NC(=O)[C@H](Cc2ccccc2)NC(=O)[C@H](CCCNC(=N)N)NC(=O)[C@H](CC(C)C)NC1=O` (cyclo(FLLR)), for which, in series [1], the “Activity relative to SFLLR (SEQ ID NO:2) (P-5) (ECcyclic /ECP-5)” value is on record as 2.

Consider `CC(C)C[C@@H]1NC(=O)[C@H](Cc2ccccc2)NC(=O)[C@H](CO)NC(=O)[C@H](CCCNC(=N)N)NC(=O)[C@H](CC(C)C)NC1=O`, for which, in series [1], the “Activity relative to SFLLR (SEQ ID NO:2) (P-5) (ECcyclic /ECP-5)” value is on record as “not active at this concentration”.

On to SFALR, for which, in the series on platelets, the “Activity in platelets” value is “little impact on the activity”.

The record behind these values is patent US5516889A, “Synthetic thrombin receptor peptides” (University Technologies International, Inc., priority 1995, dated 1996).
